This passage reports IC50 results from patent publication US12103926B2, “Compounds for treating huntington's disease” (PTC THERAPEUTICS, INC., priority 2018, dated 2024).

Some results are limits rather than exact numbers.

In this assay the test system is Endogenous Huntingtin Protein. In words: Endogenous Huntingtin Protein Assay (ELISA-based MSD electrochemiluminescence assay). Conditions: MW1 (expanded polyglutamine) or MAB2166 capture antibody; lysates. In kind it is cell-based. The protocol:
Compounds of Formula (I) were tested using the Meso Scale Discovery (MSD) Assay provided in International Application No. PCT/US2016/066042, filed on Dec. 11, 2016 and claiming priority to United States Provisional Application U.S. 62/265,652 filed on Dec. 10, 2015, the entire contents of which are incorporated herein by reference.
The Endogenous Huntingtin Protein assay used in Example 1 was developed using the ELISA-based MSD electrochemiluminescence assay platform.
Endogenous Huntingtin Protein Assay
Meso Scale Discovery (MSD) 96-well or 384-well plates were coated overnight at 4° C. with MW1 (expanded polyglutamine) or MAB2166 monoclonal antibody (for capture) at a concentration of 1 μg/mL in PBS (30 μL per well). Plates were then washed three times with 300 μL wash buffer (0.05% Tween-20 in PBS) and blocked (100 μL blocking buffer; 5% BSA in PBS) for 4-5 hours at room temperature with rotational shaking and then washed three times with wash buffer.
Samples (25 μL) were transferred to the antibody-coated MSD plate and incubated overnight at 4° C. After removal of the lysates, the plate was washed three times with wash buffer, and 25 μL of #5656S (Cell signaling; rabbit monoclonal) secondary antibody (diluted to 0.25 μg/mL in 0.05% Tween-20 in blocking buffer) was added to each well and incubated with shaking for 1 Hour at room temperature. Following incubation with the secondary antibody, the wells were rinsed with wash buffer after which 25 μL of goat anti-rabbit SULFO TAG secondary detection antibody (required aspect of the MSD system) (diluted to 0.25 μg/mL in 0.05% Tween-20 in blocking buffer) was added to each well and incubated with shaking for 1 hour at room temperature. After rinsing three times with wash buffer, 150 μL of read buffer T with surfactant (MSD) were added to each empty well, and the plate was imaged on a SI 6000 imager (MSD) according to manufacturers' instructions provided for 96- or 384-well plates.
For orientation: An ELISA detects its analyte on a solid surface through an enzyme-linked reagent.
As a reminder, the IC50 is the point on the concentration scale where inhibition reaches its midpoint. For the molecule `CN(c1cnc(-c2ccc(-n3cccn3)cc2O)cn1)C1CC(C)(C)NC(C)(C)C1` [Cpd 19, 2-{5-[methyl(2,2,6,6-tetramethylpiperidin-4-yl)amino]pyrazin-2-yl}-5-(1H-pyrazol-1-yl)phenol], the 50% inhibitory concentration (IC50) lay within 1000 to 3000 nM. The molecule `Cn1ccc(-c2ccc(-c3cnc(NC4CC(C)(C)NC(C)(C)C4)cn3)c(O)c2)n1` [Cpd 55, 5-(1-methyl-1H-pyrazol-3-yl)-2-{5-[(2,2,6,6-tetramethylpiperidin-4-yl)amino]pyrazin-2-yl}phenol] gave an IC50 of 500 to 1000 nM. For `CC(C)(C)NC1CCN(c2cnc(-c3ccc(-c4cn[nH]c4)cc3O)cn2)C1` (centres unmarked) [Cpd 52, 2-{5-[3-(tert-butylamino)pyrrolidin-1-yl]pyrazin-2-yl}-5-(1H-pyrazol-4-yl)phenol] the value was less than 100 nM; for `CN(c1cnc(-c2ccc(-c3cn[nH]c3)c(F)c2F)cn1)C1CC(C)(C)NC(C)(C)C1` [Cpd 13, 5-[2,3-difluoro-4-(1H-pyrazol-4-yl)phenyl]-N-methyl-N-(2,2,6,6-tetramethylpiperidin-4-yl)pyrazin-2-amine], less than 100 nM. For `CN(c1cnc(-c2ccc(-c3cn[nH]c3)cc2O)cn1)C1CCNCC1` [Cpd 20, 2-{5-[methyl(piperidin-4-yl)amino]pyrazin-2-yl}-5-(1H-pyrazol-4-yl)phenol] the value was 500 to 1000 nM; for `CC1(C)CC(Oc2cnc(-c3ccc(-c4cn[nH]c4)c(F)c3F)cn2)CC(C)(C)N1` [Cpd 10, 2-[2,3-difluoro-4-(1H-pyrazol-4-yl)phenyl]-5-[(2,2,6,6-tetramethylpiperidin-4-yl)oxy]pyrazine], 1000 to 3000 nM; for `CC1(C)CC(Nc2cnc(-c3ccc(-c4ccncc4)cc3O)cn2)CC(C)(C)N1` [Cpd 44, 5-(pyridin-4-yl)-2-{5-[(2,2,6,6-tetramethylpiperidin-4-yl)amino]pyrazin-2-yl} phenol], 100 to 500 nM.

The molecule `[2H]C([2H])([2H])n1cc(-c2ccc(-c3cnc(N4CCC(NC(C)(C)C)C4)cn3)c(O)c2)cn1` (centres unmarked) [Cpd 60, 2-{5-[3-(tert-butylamino)pyrrolidin-1-yl]pyrazin-2-yl}-5-[1-(^2H3)methyl-1H-pyrazol-4-yl]phenol] gave an IC50 of less than 100 nM.

`Oc1cc(-c2cn[nH]c2)ccc1-c1cnc(N2CC3(CCNC3)C2)cn1` [Cpd 21, 2-[5-(2,6-diazaspiro[3.4]octan-2-yl)pyrazin-2-yl]-5-(1H-pyrazol-4-yl)phenol]: the IC50 lay within 1000 to 3000 nM. `CN(c1cnc(-c2cc(C#N)c(-c3cn[nH]c3)cc2F)cn1)C1CC(C)(C)NC(C)(C)C1` [Cpd 24, 4-fluoro-5-{5-[methyl(2,2,6,6-tetramethylpiperidin-4-yl)amino]pyrazin-2-yl}-2-(1H-pyrazol-4-yl)benzonitrile] gave an IC50 of less than 100 nM. As for `CC(C)(C)NC1CCN(c2cnc(-c3ccc(-c4cn[nH]c4)c(F)c3F)cn2)C1` (centres unmarked) [Cpd 63, N-tert-butyl-1-{5-[2,3-difluoro-4-(1H-pyrazol-4-yl)phenyl]pyrazin-2-yl}pyrrolidin-3-amine], the IC50 was 100 to 500 nM. The result for `Oc1cc(-c2cn[nH]c2)ccc1-c1cnc(N2CC3CNCC3C2)cn1` (centres unmarked) [Cpd 6, 2-[5-(hexahydropyrrolo[3,4-c]pyrrol-2(1H)-yl)pyrazin-2-yl]-5-(1H-pyrazol-4-yl)phenol] reads 1000 to 3000 nM; that for `Cn1cc(-c2ccc(-c3cnc(NC4CC(C)(C)NC(C)(C)C4)cn3)c(O)c2)cn1` [Cpd 54, 5-(1-methyl-1H-pyrazol-4-yl)-2-{5-[(2,2,6,6-tetramethylpiperidin-4-yl)amino]pyrazin-2-yl}phenol], less than 100 nM; that for `Oc1cc(-c2cn[nH]c2)ccc1-c1cnc(OC2CC3CCC(C2)N3)cn1` (centres unmarked) [Cpd 25, 2-[5-(8-azabicyclo[3.2.1]oct-3-yloxy)pyrazin-2-yl]-5-(1H-pyrazol-4-yl)phenol], 3000 to 9000 nM. The result for `CC1(C)CC(Oc2cnc(-c3ccc(-c4cn[nH]c4)cc3O)cn2)CC(C)(C)N1` [Cpd 2, 5-(1H-pyrazol-4-yl)-2-{5-[(2,2,6,6-tetramethylpiperidin-4-yl)oxy]pyrazin-2-yl}phenol] reads 500 to 1000 nM; that for `Cc1cc(-c2cnc(N(C)C3CC(C)(C)NC(C)(C)C3)cn2)c(F)cc1-c1cn[nH]c1` [Cpd 11, 5-[2-fluoro-5-methyl-4-(1H-pyrazol-4-yl)phenyl]-N-methyl-N-(2,2,6,6-tetramethylpiperidin-4-yl)pyrazin-2-amine], 100 to 500 nM; that for `CN(c1cnc(-c2cc(F)c(-c3cn[nH]c3)c(F)c2)cn1)C1CC(C)(C)NC(C)(C)C1` [Cpd 17, 5-[3,5-difluoro-4-(1H-pyrazol-4-yl)phenyl]-N-methyl-N-(2,2,6,6-tetramethylpiperidin-4-yl)pyrazin-2-amine], 100 to 500 nM. For `CN(c1cnc(-c2ccc(-c3c[nH]nc3F)cc2O)cn1)C1CC(C)(C)NC(C)(C)C1` [Cpd 43, 5-(3-fluoro-1H-pyrazol-4-yl)-2-{5-[methyl(2,2,6,6-tetramethylpiperidin-4-yl)amino]pyrazin-2-yl}phenol] the value was 100 to 500 nM. `CN(c1cnc(-c2ccc(-n3ccc(N)n3)cc2O)cn1)C1CC(C)(C)NC(C)(C)C1` [Cpd 14, 5-(3-amino-1H-pyrazol-1-yl)-2-{5-[methyl(2,2,6,6-tetramethylpiperidin-4-yl)amino]pyrazin-2-yl}phenol] displayed an IC50 of 1000 to 3000 nM.

Take `[2H]C([2H])([2H])n1cc(-c2ccc(-c3cnc(N(C)C4CC(C)(C)NC(C)(C)C4)cn3)c(O)c2)cn1` [Cpd 28, 5-[1-(^2H3)methyl-1H-pyrazo1-4-yl]-2-{5-[methyl(2,2,6,6-tetramethylpiperidin-4-yl)amino]pyrazin-2-yl}phenol]: the IC50 lay in the range of 500 to 1000 nM. `CC1(C)CC(Nc2cnc(-c3ccc(-n4cc(F)cn4)cc3O)cn2)CC(C)(C)N1` [Cpd 59, 5-(4-fluoro-1H-pyrazol-1-yl)-2-{5-[(2,2,6,6-tetramethylpiperidin-4-yl)amino]pyrazin-2-yl}phenol] displayed an IC50 of 1000 to 3000 nM. The result for `CC1(C)CC(Nc2cnc(-c3ccc(-c4ccc5nccn5n4)cc3O)cn2)CC(C)(C)N1` [Cpd 56, 5-(imidazo[1,2-b]pyridazin-6-yl)-2-{5-[(2,2,6,6-tetramethylpiperidin-4-yl)amino]pyrazin-2-yl}phenol] reads less than 100 nM; that for `Cc1[nH]ncc1-c1ccc(-c2cnc(N(C)C3CC(C)(C)NC(C)(C)C3)cn2)c(O)c1` [Cpd 12, 5-(5-methyl-1H-pyrazol-4-yl)-2-{5-[methyl(2,2,6,6-tetramethylpiperidin-4-yl)amino]pyrazin-2-yl}phenol], 500 to 1000 nM. The result for `CN(c1cnc(-c2ccc(-c3cnn(C)c3)cc2O)cn1)C1CC(C)(C)NC(C)(C)C1` [Cpd 27, 5-(1-methyl-1H-pyrazol-4-yl)-2-{5-[methyl(2,2,6,6-tetramethylpiperidin-4-yl)amino]pyrazin-2-yl} phenol] reads 100 to 500 nM; that for `CN(c1cnc(-c2ccc(-c3cn[nH]c3)cc2O)cn1)C1CC2(CCCCC2)NC2(CCCCC2)C1` (centres unmarked) [Cpd 3, 2-{5-[(7-azadispiro[5.1.5^8.3^6]hexadecan-15-yl)(methyl)amino]pyrazin-2-yl}-5-(1H-pyrazol-4-yl)phenol], 1000 to 3000 nM. Turning to `CN(c1cnc(-c2ccc(-c3ccnc(O)c3)cc2O)cn1)C1CC(C)(C)NC(C)(C)C1` [Cpd 1, 4-(3-hydroxy-4-{5-[methyl(2,2,6,6-tetramethylpiperidin-4-yl)amino]pyrazin-2-yl}phenyl)pyridin-2-ol], the IC50 is less than 100 nM.

As for `Cc1ncn(-c2cc(F)c(-c3cnc(N(C)C4CC(C)(C)NC(C)(C)C4)cn3)cc2F)n1` [Cpd 42, 5-[2,5-difluoro-4-(3-methyl-1H-1,2,4-triazol-1-yl)phenyl]-N-methyl-N-(2,2,6,6-tetramethylpiperidin-4-yl)pyrazin-2-amine], the IC50 lay in the range of 100 to 500 nM. For `Oc1cc(-c2cn[nH]c2)ccc1-c1cnc(OC2CCNCC2)cn1` [Cpd 7, 2-{5-[(piperidin-4-yl)oxy]pyrazin-2-yl}-5-(1H-pyrazol-4-yl)phenol] the value was 1000 to 3000 nM. For `CC1(C)CC(Nc2cnc(-c3ccc(-c4cn[nH]c4)cc3O)cn2)CC(C)(C)N1` [Cpd 46, 5-(1H-pyrazol-4-yl)-2-{5-[(2,2,6,6-tetramethylpiperidin-4-yl)amino]pyrazin-2-yl}phenol] the value was less than 100 nM. The result for `CN(c1cnc(-c2ccc(-c3cn[nH]c3)c(F)c2)cn1)C1CC(C)(C)NC(C)(C)C1` [Cpd 16, 5-[3-fluoro-4-(1H-pyrazol-4-yl)phenyl]-N-methyl-N-(2,2,6,6-tetramethylpiperidin-4-yl)pyrazin-2-amine] reads 500 to 1000 nM; that for `CN(c1cnc(-c2ccc(-c3cn[nH]c3C(F)(F)F)cc2O)cn1)C1CC(C)(C)NC(C)(C)C1` [Cpd 9, 2-{5-[methyl(2,2,6,6-tetramethylpiperidin-4-yl)amino]pyrazin-2-yl}-5-[5-(trifluoromethyl)-1H-pyrazol-4-yl]phenol], 1000 to 3000 nM; that for `CC1(C)CC(Nc2cnc(-c3ccc(-n4ccnc4)cc3O)cn2)CC(C)(C)N1` [Cpd 50, 5-(1H-imidazol-1-yl)-2-{5-[(2,2,6,6-tetramethylpiperidin-4-yl)amino]pyrazin-2-yl}phenol], 100 to 500 nM.
